Literature values in patent publication US11297852B2, “Method for treatment or prevention of gill disease” (NUTRECO IP ASSETS B.V., priority 2015, dated 2022).
Where two headings read alike, the source gives them in different places.

Tests used:
AGD [1] = conditions: oral supplementation
AGD [2] = conditions: in feed at 25 mg/kg
amoebae = conditions: in vitro bath treatment at 10 mg/l, used individually
P. perurans = conditions: in feed
[3] = Atlantic salmon
AGD [4] = conditions: oral administration two weeks prior to challenge
[5] = 7 days after P. perurans challenge

Compound | amoebae numbers (amoebae) | percent of lamella with lesions compared to control fed fish (P. perurans; 14 and 21 days after challenge) | percent of lamella with lesions compared to control fed fish (P. perurans; [5]) | further results
c1ccc([C@H]2CN3CCSC3=N2)cc1 [levamisole] | – | – | – | impact on mortality levels (AGD [1]): no significant impact
Oc1c(Cl)cc(Cl)cc1Sc1cc(Cl)cc(Cl)c1O [Bithionol] | – | – | – | AGD associated lesions (AGD [2]): delay and reduction in intensity
CO[C@@H]1[C@@H](OC)[C@H](C)[C@@](O)(CC(=O)O)O[C@H]1[C@H](C)[C@H]1O[C@@]2(CC[C@@](C)([C@H]3CC[C@@](C)([C@@H]4O[C@@H]([C@H]5O[C@](C)(O)[C@H](C)C[C@@H]5C)C[C@@H]4O[C@@H]4C[C@H](OC)[C@@H](OC)[C@H](C)O4)O3)O2)C[C@H](O)[C@H]1C [Maduramycin] | significantly reduced amoebae numbers | no difference | reduced the percent of lamella with lesions | –
glucans | – | – | – | impact on mortality levels (AGD [1]): no significant impact
CCOC(=O)[C@@H](N)CS [LCEE, L-cysteine ethyl ester] | – | – | – | mucus viscosity [3]: reduce mucus viscosity; progression of AGD associated gill pathology (AGD [4]): significantly delayed the progression
CC[C@@H](C(=O)[C@@H](C)[C@@H](O)[C@H](C)CCc1ccc(C)c(O)c1C(=O)O)[C@H]1O[C@](CC)([C@H]2CC[C@](O)(CC)[C@H](C)O2)C[C@@H]1C [Lasalocid acid] | significantly reduced amoebae numbers | no difference | reduced the percent of lamella with lesions | –
CC[C@@H](C(=O)[C@@H](C)[C@@H](O)[C@H](C)[C@@H]1O[C@@H]([C@@H](CC)C(=O)O)CC[C@@H]1C)[C@H]1O[C@]2(C=C[C@@H](O)[C@]3(CC[C@@](C)([C@H]4CC[C@](O)(CC)[C@H](C)O4)O3)O2)[C@H](C)C[C@@H]1C [Salinomycin] | significantly reduced amoebae numbers | no difference | reduced the percent of lamella with lesions | –
